According to patent US20260207624A1, “COADMINISTRATION OF ESTROGEN WITH ESTROGEN RECEPTOR MODULATOR OR DEGRADER OR ER TARGETED PROTAC FOR THE TREATMENT OF ESTROGEN RESPONSIVE CANCERS” (Duke University, priority 2022, published 2026):

Columns and labels:
ER = target: T1, ER (Homo sapiens, UniProt P03372); experiment: ER downregulation in breast cancer cell lines by in-cell western; assay type: cell-based; conditions: MCF7, BT483, T47D, ZR751, CAMA1 cells, 24 hours after treatment
T1 construct: SERDs differ in the efficacy of ER downregulation in breast cancer cell lines; endogenous in cells; host or cells: MCF7, BT483, T47D, ZR751, CAMA1
T1 sequence (P03372 1-595): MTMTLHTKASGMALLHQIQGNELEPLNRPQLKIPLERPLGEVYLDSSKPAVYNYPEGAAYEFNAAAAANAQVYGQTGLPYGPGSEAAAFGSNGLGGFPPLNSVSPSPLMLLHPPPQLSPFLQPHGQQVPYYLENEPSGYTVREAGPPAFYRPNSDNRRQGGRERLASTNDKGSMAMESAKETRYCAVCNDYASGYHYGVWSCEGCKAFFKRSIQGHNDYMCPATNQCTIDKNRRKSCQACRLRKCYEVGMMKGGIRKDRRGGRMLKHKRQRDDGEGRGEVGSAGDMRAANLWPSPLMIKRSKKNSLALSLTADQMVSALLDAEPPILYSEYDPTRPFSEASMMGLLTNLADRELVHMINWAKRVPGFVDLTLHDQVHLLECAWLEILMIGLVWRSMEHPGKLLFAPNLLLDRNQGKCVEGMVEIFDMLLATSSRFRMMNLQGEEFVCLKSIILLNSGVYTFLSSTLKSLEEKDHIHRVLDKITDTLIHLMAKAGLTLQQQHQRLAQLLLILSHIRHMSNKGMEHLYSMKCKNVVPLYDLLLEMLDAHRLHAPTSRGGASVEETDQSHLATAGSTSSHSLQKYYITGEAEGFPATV
Description: FIGS. 8A-8B. SERDs differ in the efficacy of ER downregulation in breast cancer cell lines. Breast cancer cells, including MCF7, BT483, T47D, ZR751, and CAMA1, were plated in phenol red free media supplemented with charcoal stripped FBS prior to treatment in triplicate wells with the indicated SERMs or SERDs (10-11-10-5 M final concentration). 24 hours after treatment, cells were fixed to the plates, and ER levels were analyzed by in-cell western using a fluorophore conjugated secondary antibody. Average detected ER levels were normalized to well DNA content using DRAQ5 staining. Relative ER turnover was calculated as a ratio of normalized ER levels detected in treated wells to untreated wells. Data were representative of at least 3 independent experiments. Data for each cell line were graphed in 2 panels to categorize SERDs by chemical properties, separating basic SERDs (FIG. 8A) and those having carboxylic acid group(s) (FIG. 8B). Serm-like SERDs bazedoxifene and elacestrant were also presented in (FIG. 8A) for reference. Fulvestrant was included on both graphs for all cell lines to facilitate comparison.

Breast cancer cells = experiment: Anti-proliferative activity in breast cancer cell lines (DNA content, Hoechst staining); assay type: cell-based; conditions: with estradiol 0.1 nM, 7 days after treatment
Description: FIGS. 9A-9C. Anti-proliferative activities of SERDs in select breast cancer cell lines differ primarily in potency. Breast cancer cells were plated in phenol red free media supplemented with charcoal stripped FBS prior to treatment in triplicate wells with the indicated SERMs and SERM-like SERDs (FIG. 9A), acidic SERDs (FIG. 9B), basic SERDs (FIG. 9C) at 10^-12 to 10^-5 M final concentration, followed by addition of estradiol (E2, 0.1 nM) or insulin (2 nM, MCF7 cell line only, bottom panels). 7 days after treatment, plates were harvested and DNA quantitated using fluorescence following Hoechst staining. Average detected fluorescence was normalized to wells receiving no ligand treatment, and relative change in DNA fluorescence was calculated compared to wells treated only with E2. Data are representative of at least 3 independent experiments.

CCNCCc1ccc(CN(CC)c2cc(OC)ccc2[C@@H]2CCc3cc(O)ccc3C2)cc1 [elacestrant]
ER downregulation / ER degradation (ER): generally the least efficient SERD | inhibition of cellular proliferation (Breast cancer cells): efficacy similar to that observed for other SERDs
